Measurements from ChEMBL document CHEMBL1149511, “Tri-substituted triazoles as potent non-nucleoside inhibitors of the HIV-1 reverse transcriptase” (Bioorg Med Chem Lett, 2006).

Key:
Assay type in all cases: functional, cell-based
HeLa [1] = experiment: Antiviral activity against wild type HIV1 in HeLa-JC53 cells; conditions: Homo sapiens
HeLa [2] = experiment: Antiviral activity against HIV1 Y188L mutant in HeLa-JC53 cells
HeLa [3] = experiment: Cytotoxicity against human HeLa-JC53 cells
HeLa [4] = experiment: Antiviral activity against HIV1 K103N-Y181C mutant in HeLa-JC53 cells

Compound | EC50 (HeLa [1]) | EC50 (HeLa [2]) | Activity (HeLa [3]) | EC50 (HeLa [4])
Cc1cc(C)c2ccccc2c1-n1c(C)nnc1SCC(=O)Nc1ccc(S(N)(=O)=O)cc1Cl | 0.1 nM | 4 nM | Not toxic | –
Cc1ccc2c(C)cc(C)c(-n3c(SCC(=O)Nc4ccc(S(N)(=O)=O)cc4Cl)nnc3C(F)(F)F)c2n1 | 1 nM | 4 nM | Not toxic | –
Cc1ccc(NC(=O)CSc2nnc(C)n2-c2ccccc2)c(Br)c1 | 100 nM | > 10000 nM | – | 1300 nM
Cc1ccc2c(C)ccc(-n3c(C)nnc3SCC(=O)Nc3ccc(S(N)(=O)=O)cc3Cl)c2c1 | 0.6 nM | 6 nM | Not toxic | –
Cc1ccc(NC(=O)CSc2nnc(C)n2-c2cccc3ccccc23)c(Cl)c1 | 4 nM | 590 nM | – | 54 nM
CN(C)c1ccc(-n2c(SCC(=O)Nc3ccc(S(N)(=O)=O)cc3Cl)nnc2C(F)(F)F)c2ccccc12 | 2 nM | 7 nM | Not toxic | –
CCc1ccc(-n2c(C)nnc2SCC(=O)Nc2ccc(C)cc2Cl)c2ccccc12 | 1 nM | 110 nM | – | 32 nM
